Tested on: 845751-090-R-J2-PDC tumor spheroid viability
Test: Anticancer human tumor 845751-090-R-J2-PDC patient-derived head and neck squamous carcinoma cell line growth inhibition [IpAb]
Conditions: spheroids with HUVEC and MSC; for IC50: curve of first compound; for viability, T/C: stronger effect = lower value
Description: Combinatorial screen of targeted agents with ipatasertib and abemaciclib in multi-cell type tumor spheroids
A high-throughput screen of multi-cell type tumor spheroids was designed to identify active combinations of targeted small molecules and ipatasertib or abemaciclib. Complex spheroids include a stromal component modeled by human endothelial cells (HUVEC) and fibroblasts modeled by human mesenchymal stem cells (MSCs). The concentration ranges selected for each drug and investigational agent were based upon clinically achievable concentrations if the clinical Cmax of the agent was known.
Compounds. The drugs and investigational agents: ipatasertib (NSC767898), abemaciclib(NSC768073), selumetinib (NSC741078), trametinib (758246), adavosertib (NSC754352), everolimus (NSC733504), sapanisertib (NSC764658), vemurafenib (NSC761431), venetoclax (NSC766270), copanlisib (NSC809693), apelisib (NSC765974), palbociblib (NSC758247), vemurafenib (NSC761431), dabrafenib (NSC764134), ravoxertinib (NSC781343), BMS-387032 (NSC767048), sotorasib (NSC818433), talazoparib (NSC767125) and afursertib (NSC778305), were obtained from the National Cancer Institute (NCI) Developmental Therapeutics Program Chemical Repository. The FDA-approved anticancer drug set is available from the NCI Developmental Therapeutics Program. […] The stock solutions were prepared in dimethyl sulfoxide (DMSO, Sigma-Aldrich, St. Louis, MO, cat. D2650) at 800-fold the tested concentration and stored at -70 degrees C prior to their use. All drugs and investigational agents were tested over a range starting from a high concentration at or near the clinical Cmax and decreasing in half-log increments. If the clinical Cmax for an agent had not been determined, the highest concentration tested was 10 microM.
NCI60 Cell Culture. NCI60 cell lines were obtained from the NCI Developmental Therapeutics Program Tumor Repository. For each lot of cells, the Repository performed Applied Biosystems AmpFLSTR Identifiler testing with PCR amplification to confirm consistency with the published Identifier STR profile for each cell line. Cells were kept in continuous culture for no more than 20 passages. The optimal seeding densities for each of the cell lines at each time point assessed were determined prior to performing the concentration response studies. Briefly, the NCI60 human tumor lines were grown as monolayers in RPMI 1640 medium supplemented with 10% FBS and 2 mmol/L L-glutamine.
An additional 9 lines were from the NCI60 cell line panel including MDA-MB-231 breast carcinoma, MDA-MB-468 breast carcinoma, MCF7 breast carcinoma, Hs578T breast carcinoma, MALME-3M melanoma, SK-MEL-2 melanoma, SK-OV-3 ovarian carcinoma, DU-145 prostate carcinoma, PC-3 prostate carcinoma, all cell lines along with major genetic alterations are listed on Table 2. Pooled donor human umbilical vein endothelial cells (HUVEC, Lonza, cat. CC-2519) and human mesenchymal stem cells (hMSC, Lonza, cat. PT-2501) were purchased from Lonza (Walkersville, MD).
PDMR cell lines were grown in complete medium (DC medium): Dulbecco's modified Eagle's medium (DMEM)/F12 supplemented with 5% fetal bovine serum (FBS), 2 mM L-glutamine, 100 U/mL penicillin and 100 µg/ml streptomycin, 0.4 µg/ml hydrocortisone, 10 ng/ml epidermal growth factor (EGF) recombinant human protein, 24 µg/mL adenine, and 0.1 mg/mL primocin. During culture from frozen stock vials, PDMR cells were cultured in the same medium containing 10 µM Y-27632 (see Table 3). The PDCs were cultured in complete DMEM/F12 media without 10 microM Y-27632 dihydrochloride for at least two passages prior to the screen. The pooled donor HUVEC and hMSC were cultured in endothelial cell growth medium 2 (PromoCell, Heidelberg, Germany, cat. C-22011) and mesenchymal stem cell growth medium 2 (PromoCell, cat. C-28009), respectively. For all experiments, HUVEC and hMSC were used at passages </=5.
[…]

[1] = second compound 0.1 µM, first compound 0.0316 µM
[2] = second compound 0.1 µM, first compound 0.1 µM
[3] = second compound 0.316 µM, first compound 0.0316 µM
[4] = second compound 0.316 µM, first compound 0.1 µM
[5] = second compound 1 µM, first compound 0.0316 µM
[6] = second compound 1 µM, first compound 0.1 µM
[7] = second compound 3.16 µM, first compound 0.0316 µM
[8] = second compound 3.16 µM, first compound 0.1 µM
[9] = second compound 10 µM, first compound 0.0316 µM
[10] = second compound 10 µM, first compound 0.1 µM
[11] = second compound 0.1 µM, first compound 0.316 µM
[12] = second compound 0.1 µM, first compound 1 µM
[13] = second compound 0.1 µM, first compound 3.16 µM
[14] = second compound 0.1 µM, first compound 10 µM
[15] = second compound 0.316 µM, first compound 0.316 µM
[16] = second compound 0.316 µM, first compound 1 µM
[17] = second compound 0.316 µM, first compound 3.16 µM
[18] = second compound 0.316 µM, first compound 10 µM
[19] = second compound 1 µM, first compound 0.316 µM
[20] = second compound 1 µM, first compound 1 µM
[21] = second compound 1 µM, first compound 3.16 µM
[22] = second compound 1 µM, first compound 10 µM
[23] = second compound 3.16 µM, first compound 0.316 µM
[24] = second compound 3.16 µM, first compound 1 µM
[25] = second compound 3.16 µM, first compound 3.16 µM
[26] = second compound 3.16 µM, first compound 10 µM
[27] = second compound 10 µM, first compound 0.316 µM
[28] = second compound 10 µM, first compound 1 µM
[29] = second compound 10 µM, first compound 3.16 µM
[30] = second compound 10 µM, first compound 10 µM
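Further: spheroids exposed to compounds for 7 days before readout.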
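Wherever viability, T/C is given: CTG3D luminescence normalised so that 100% = DMSO vehicle control.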

Compound: CC(C)n1nc(-c2ccc3oc(N)nc3c2)c2c(N)ncnc21 + CC(C)NCC(C(=O)N1CCN(c2ncnc3c2C(C)CC3O)CC1)c1ccc(Cl)cc1
- IC50 (second compound 0.1 µM): 1.3 nM
- IC50 (second compound 0.316 µM): < 0.316 nM
- IC50 (second compound 1 µM): < 0.316 nM
- IC50 (second compound 3.16 µM): < 0.316 nM
- IC50 (second compound 10 µM): < 0.316 nM
- viability, T/C (second compound 0.1 µM, first compound 0.000316 µM): 55.2%
- viability, T/C (second compound 0.1 µM, first compound 0.001 µM): 48.8%
- viability, T/C (second compound 0.1 µM, first compound 0.00316 µM): 45.1%
- viability, T/C (second compound 0.1 µM, first compound 0.01 µM): 28.1%
- viability, T/C [1]: 21.2%
- viability, T/C [2]: 21.8%
- viability, T/C (second compound 0.316 µM, first compound 0.000316 µM): 36%
- viability, T/C (second compound 0.316 µM, first compound 0.001 µM): 27.3%
- viability, T/C (second compound 0.316 µM, first compound 0.00316 µM): 23.3%
- viability, T/C (second compound 0.316 µM, first compound 0.01 µM): 13.5%
- viability, T/C [3]: 11.2%
- viability, T/C [4]: 9.02%
- viability, T/C (second compound 1 µM, first compound 0.000316 µM): 22.4%
- viability, T/C (second compound 1 µM, first compound 0.001 µM): 22.9%
- viability, T/C (second compound 1 µM, first compound 0.00316 µM): 12.2%
- viability, T/C (second compound 1 µM, first compound 0.01 µM): 8.4%
- viability, T/C [5]: 8.17%
- viability, T/C [6]: 9.76%
- viability, T/C (second compound 3.16 µM, first compound 0.000316 µM): 24.3%
- viability, T/C (second compound 3.16 µM, first compound 0.001 µM): 13.1%
- viability, T/C (second compound 3.16 µM, first compound 0.00316 µM): 8.4%
- viability, T/C (second compound 3.16 µM, first compound 0.01 µM): 5.71%
- viability, T/C [7]: 4%
- viability, T/C [8]: 3.17%
- viability, T/C (second compound 10 µM, first compound 0.000316 µM): 8.63%
- viability, T/C (second compound 10 µM, first compound 0.001 µM): 7.55%
- viability, T/C (second compound 10 µM, first compound 0.00316 µM): 4.17%
- viability, T/C (second compound 10 µM, first compound 0.01 µM): 4.42%
- viability, T/C [9]: 2.07%
- viability, T/C [10]: 1.99%

Compound: CC1(C)CCC(CN2CCN(c3ccc(C(=O)NS(=O)(=O)c4ccc(NCC5CCOCC5)c([N+](=O)[O-])c4)c(Oc4cnc5[nH]ccc5c4)c3)CC2)=C(c2ccc(Cl)cc2)C1 + CC(C)NCC(C(=O)N1CCN(c2ncnc3c2C(C)CC3O)CC1)c1ccc(Cl)cc1
- IC50 (second compound 0.1 µM): 5770 nM
- IC50 (second compound 0.316 µM): < 31.6 nM
- IC50 (second compound 1 µM): < 31.6 nM
- IC50 (second compound 3.16 µM): < 31.6 nM
- IC50 (second compound 10 µM): < 31.6 nM
- viability, T/C [1]: 65.2%
- viability, T/C [2]: 83%
- viability, T/C [11]: 81.9%
- viability, T/C [12]: 67%
- viability, T/C [13]: 111%
- viability, T/C [14]: 20.9%
- viability, T/C [3]: 30.5%
- viability, T/C [4]: 38.3%
- viability, T/C [15]: 53.5%
- viability, T/C [16]: 44%
- viability, T/C [17]: 47%
- viability, T/C [18]: 14.4%
- viability, T/C [5]: 28.6%
- viability, T/C [6]: 27.6%
- viability, T/C [19]: 54.8%
- viability, T/C [20]: 33.1%
- viability, T/C [21]: 33.6%
- viability, T/C [22]: 7.48%
- viability, T/C [7]: 26.7%
- viability, T/C [8]: 27.3%
- viability, T/C [23]: 31.5%
- viability, T/C [24]: 29.5%
- viability, T/C [25]: 42.4%
- viability, T/C [26]: 5.79%
- viability, T/C [9]: 13.1%
- viability, T/C [10]: 14.6%
- viability, T/C [27]: 38.2%
- viability, T/C [28]: 15.5%
- viability, T/C [29]: 22%
- viability, T/C [30]: 3.52%

Compound: CCCS(=O)(=O)Nc1ccc(F)c(C(=O)c2c[nH]c3ncc(-c4ccc(Cl)cc4)cc23)c1F + CC(C)NCC(C(=O)N1CCN(c2ncnc3c2C(C)CC3O)CC1)c1ccc(Cl)cc1
- IC50 (second compound 0.1 µM): > 10000 nM
- IC50 (second compound 0.316 µM): 126 nM
- IC50 (second compound 1 µM): < 31.6 nM
- IC50 (second compound 3.16 µM): < 31.6 nM
- IC50 (second compound 10 µM): < 31.6 nM
- viability, T/C [1]: 74.3%
- viability, T/C [2]: 75.2%
- viability, T/C [11]: 63%
- viability, T/C [12]: 61.6%
- viability, T/C [13]: 49%
- viability, T/C [14]: 53.4%
- viability, T/C [3]: 47.2%
- viability, T/C [4]: 52.1%
- viability, T/C [15]: 46.1%
- viability, T/C [16]: 55.4%
- viability, T/C [17]: 56.7%
- viability, T/C [18]: 38.8%
- viability, T/C [5]: 46.5%
- viability, T/C [6]: 45.9%
- viability, T/C [19]: 37.6%
- viability, T/C [20]: 31.2%
- viability, T/C [21]: 42.5%
- viability, T/C [22]: 24.8%
- viability, T/C [7]: 41.9%
- viability, T/C [8]: 42.6%
- viability, T/C [23]: 29%
- viability, T/C [24]: 26.5%
- viability, T/C [25]: 32%
- viability, T/C [26]: 16.3%
- viability, T/C [9]: 18.7%
- viability, T/C [10]: 17.2%
- viability, T/C [27]: 19.6%
- viability, T/C [28]: 14.7%
- viability, T/C [29]: 15.7%
- viability, T/C [30]: 7.71%

Reference: PubChem BioAssay AID2060333 (Molecular Pharmacology Branch, DTP, NCI, 2025)
